US9399649B2, “Compounds for treating spinal muscular atrophy” (PTC Therapeutics Inc., priority 2012, dated 2016)

Key:
Smn protein = Smn protein assay in cultured cells (SMN HTRF); format: cell-based, human; conditions: SMA patient fibroblast cells (GM03813), 48 hours; for maximum fold (Fold) increase of Smn protein: 7-point concentration data, relative to vehicle control; for EC1.5x for Smn protein expression: 7-point concentration curve, concentration producing 1.5 times Smn protein vs DMSO vehicle
In short: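 Smn protein measured by HTRF (anti-SMN d2/kryptate) in lysates of SMA patient fibroblasts after 48 h compound treatment, 7-point 3.16-fold dilutions, triplicates. The 665/620 nm ratio is blank-corrected to ΔF, then divided by the vehicle ΔF to give fold increase.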

[1] = system: full length SMN2 minigene mRNA containing SMN2 exon 7; assay: SMN2 minigene mRNA splicing RT-qPCR assay in cultured cells; format: cell-based, human; conditions: Homo sapiens, HEK293-H; HEK293H cells stably transfected with SMN2-A minigene, 24 hours, 7-point concentration curve; concentration giving 1.5-fold full length SMN2 mRNA vs vehicle; read-out: EC1.5x for production of full length SMN2 mRNA
In short: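 Read-out is minigene FL mRNA (exon 7 included) relative to vehicle, from efficiency-corrected ΔΔCt with GAPDH normalisation. Primers and probe span exon 7, exon 8 and luciferase, so endogenous SMN is not detected. Stable SMN2-A minigene HEK293H cells, 24 h compound exposure at 37 °C, 7-point curve in duplicate.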

Row | melting point [°C] | Structure (SMILES) | maximum fold (Fold) increase of Smn protein (Smn protein) | EC (1.5-fold) [1] [µM] | EC1.5x for Smn protein expression (Smn protein)
1 | 294 to 296 | Cc1cn2cc(-c3cc4ccc(N5CCN(C6COC6)CC5)cc4c(=O)o3)nc2c(C)n1 [Cpd 97, 3-(6,8-dimethylimidazo[1,2-a]pyrazin-2-yl)-7-[4-(oxetan-3-yl)piperazin-1-yl]-1H-isochromen-1-one] | *** (a fold increase between >1.35 and ≦1.5 is indicated by three stars (***)) | 1 to 3 | 
2 | 221 to 226 | Cc1nc(Cl)cn2cc(-c3cc4ccc(N5CCNCC5)cc4c(=O)o3)nc12 [Cpd 99, 3-(6-chloro-8-methylimidazo[1,2-a]pyrazin-2-yl)-7-(piperazin-1-yl)-1H-isochromen-1-one] | ***** (a fold increase >1.65 is indicated by five stars (*****)) | ≤ 0.1 | *** (an EC1.5× between >0.3 nM and ≦1 nM is indicated by three stars (***))
3 | 291 to 296 | Cc1nc(Cl)cn2cc(-c3cc4ccc(N5CCN(C)CC5)cc4c(=O)o3)nc12 [Cpd 100, 3-(6-chloro-8-methylimidazo[1,2-a]pyrazin-2-yl)-7-(4-methylpiperazin-1-yl)-1H-isochromen-1-one] | ***** (a fold increase >1.65 is indicated by five stars (*****)) | ≤ 0.1 | *** (an EC1.5× between >0.3 nM and ≦1 nM is indicated by three stars (***))
4 | 286 to 291 | Cc1nc(Cl)cn2cc(-c3cc4ccc(N5CCN(C(C)C)CC5)cc4c(=O)o3)nc12 [Cpd 101, 3-(6-chloro-8-methylimidazo[1,2-a]pyrazin-2-yl)-7-[4-(propan-2-yl)piperazin-1-yl]-1H-isochromen-1-one] | ***** (a fold increase >1.65 is indicated by five stars (*****)) | 0.1 to 0.3 | *** (an EC1.5× between >0.3 nM and ≦1 nM is indicated by three stars (***))
5 | 229 to 234 | CCN1CCN(c2ccc3cc(-c4cn5cc(Cl)nc(C)c5n4)oc(=O)c3c2)CC1 [Cpd 102, 3-(6-chloro-8-methylimidazo[1,2-a]pyrazin-2-yl)-7-(4-ethylpiperazin-1-yl)-1H-isochromen-1-one] | *** (a fold increase between >1.35 and ≦1.5 is indicated by three stars (***)) | 0.1 to 0.3 | 
6 | 271 to 276 | Cc1nc2ccc(-c3cc4ccc(N5CCNCC5)cc4c(=O)o3)cc2s1 [Cpd 103, 3-(2-methyl-1,3-benzothiazol-6-yl)-7-(piperazin-1-yl)-1H-isochromen-1-one] | **** (a fold increase between >1.5 and ≦1.65 is indicated by four stars (****)) | ≤ 0.1 | **** (an EC1.5×≦0.3 nM is indicated by four stars (****))
7 | 231 to 236 | Cc1nc2ccc(-c3cc4ccc(N5CCN(C)CC5)cc4c(=O)o3)cc2s1 [Cpd 104, 3-(2-methyl-1,3-benzothiazol-6-yl)-7-(4-methylpiperazin-1-yl)-1H-isochromen-1-one] | *** (a fold increase between >1.35 and ≦1.5 is indicated by three stars (***)) | 0.1 to 0.3 | 
8 | 222 to 228 | Cc1nc2ccc(-c3cc4ccc(N5CCN(C(C)C)CC5)cc4c(=O)o3)cc2s1 [Cpd 105, 3-(2-methyl-1,3-benzothiazol-6-yl)-7-[4-(propan-2-yl)piperazin-1-yl]-1H-isochromen-1-one] | ** (a fold increase between >1.2 and ≦1.35 is indicated by two stars (**)) | 0.1 to 0.3 | 
9 | 229 to 235 | Cc1nc2cc(-c3cc4ccc(N5CCNCC5)cc4c(=O)o3)ccc2s1 [Cpd 106, 3-(2-methyl-1,3-benzothiazol-5-yl)-7-(piperazin-1-yl)-1H-isochromen-1-one] | * (A maximum fold increase of ≦1.2 is indicated by one star (*)) | 1 to 3 | 
10 | 222 to 228 | Cc1nc2ccc(-c3cc4ccc(N5CCN(C6COC6)CC5)cc4c(=O)o3)cc2s1 [Cpd 107, 3-(2-methyl-1,3-benzothiazol-6-yl)-7-[4-(oxetan-3-yl)piperazin-1-yl]-1H-isochromen-1-one] | *** (a fold increase between >1.35 and ≦1.5 is indicated by three stars (***)) | 0.3 to 1 | 
11 | 251 to 258 | Cc1nc(Cl)cn2cc(-c3cc4ccc(N5CCN[C@@H](C)C5)cc4c(=O)o3)nc12 [Cpd 108, 3-(6-chloro-8-methylimidazo[1,2-a]pyrazin-2-yl)-7-[(3S)-3-methylpiperazin-1-yl]-1H-isochromen-1-one] | ***** (a fold increase >1.65 is indicated by five stars (*****)) | ≤ 0.1 | **** (an EC1.5×≦0.3 nM is indicated by four stars (****))
12 | 251 to 258 | Cc1nc(Cl)cn2cc(-c3cc4ccc(N5CCN[C@H](C)C5)cc4c(=O)o3)nc12 [Cpd 109, 3-(6-chloro-8-methylimidazo[1,2-a]pyrazin-2-yl)-7-[(3R)-3-methylpiperazin-1-yl]-1H-isochromen-1-one] | ***** (a fold increase >1.65 is indicated by five stars (*****)) | ≤ 0.1 | *** (an EC1.5× between >0.3 nM and ≦1 nM is indicated by three stars (***))
13 | 261 to 266 | Cc1nc(Cl)cn2cc(-c3cc4ccc(N5C[C@@H](C)N[C@@H](C)C5)cc4c(=O)o3)nc12 [Cpd 110, 3-(6-chloro-8-methylimidazo[1,2-a]pyrazin-2-yl)-7-[(3R,5S)-3,5-dimethylpiperazin-1-yl]-1H-isochromen-1-one] | **** (a fold increase between >1.5 and ≦1.65 is indicated by four stars (****)) | 0.3 to 1 | *** (an EC1.5× between >0.3 nM and ≦1 nM is indicated by three stars (***))
14 | 271 to 276 | Cc1nc(Cl)cn2cc(-c3cc4ccc(N5CCN(C)[C@H](C)C5)cc4c(=O)o3)nc12 [Cpd 111, 3-(6-chloro-8-methylimidazo[1,2-a]pyrazin-2-yl)-7-[(3R)-3,4-dimethylpiperazin-1-yl]-1H-isochromen-1-one] | ***** (a fold increase >1.65 is indicated by five stars (*****)) | 0.1 to 0.3 | *** (an EC1.5× between >0.3 nM and ≦1 nM is indicated by three stars (***))

Row | Structure (SMILES) | melting point [°C] | maximum fold (Fold) increase of Smn protein (Smn protein) | EC (1.5-fold) [1] [µM] | EC1.5x for Smn protein expression (Smn protein)
15 | Cc1cn2cc(-c3cc4ccc(C5=CCN(C6COC6)CC5)cc4c(=O)o3)nc2c(C)n1 [Cpd 98, 3-(6,8-dimethylimidazo[1,2-a]pyrazin-2-yl)-7-[1-(oxetan-3-yl)-1,2,3,6-tetrahydropyridin-4-yl]-1H-isochromen-1-one] | 253 to 255 | ***** (a fold increase >1.65 is indicated by five stars (*****)) | ≤ 0.1 | *** (an EC1.5× between >0.3 nM and ≦1 nM is indicated by three stars (***))
